Measurements reported in patent publication US6376495B1, “Antidiabetic piperazine derivatives, processes for their preparation and compositions containing them” (Merck Patent Gesellschaft, priority 1998, dated 2002).

Key:
[1] = tested on: experimental model of non-insulin-dependent diabetes induced in the rat by streptozotocin; test: Study of the antidiabetic activity in the rat (glycaemia, oral route); format: in vivo; conditions: diabetic rats 8 weeks old; for % of glycaemia at D1 (percentage of change in the glycaemia with respect to D0): after treatment for 1 day; for % of glycaemia at D4 (percentage of change in the glycaemia with respect to D0): after treatment for 4 days
Description: The antidiabetic activity of the compounds of formula I by the oral route was determined on an experimental model of non-insulin-dependent diabetes induced in the rat by streptozotocin.
The model of non-insulin-dependent diabetes is obtained in the rat by a neonatal injection (on the day of birth) of streptozotocin.
The diabetic rats used are 8 weeks old. The animals are kept, from the day of their birth to the day of the experiment, in an animal house at a regulated temperature of 21 to 22° C. and are subjected to a fixed cycle of light (from 7 h to 19 h) and of darkness (from 19 h to 7 h). Their diet consisted of a maintenance diet; water and food were provided “ad libitum”, with the exception of the 2 hours of fasting preceding the tests, where food is withdrawn (post-absorptive state).
The rats are treated by the oral route, during the day, with the test product. Two hours after the final administration of the product and 30 minutes after anaesthetizing the animals with sodium pentobarbital (Nembutal®), a 300-μl blood sample is withdrawn at the end of the tail in order to determine the glycaemia.
at D1 (after treatment for 1 day) with respect to D0 (before treatment); and
at D4 (after treatment for 4 days) with respect to D0 (before treatment) for 2 different administration doses (20 mg/kg/day and 200 mg/kg/day) of active principle.

[2] = tested on: experimental model of non-insulin-dependent diabetes induced in the rat by streptozotocin; test: Study of the hypolipidaemic activity in the rat (total cholesterol, total triglycerides); format: in vivo; conditions: oral route for 7 days, sample 18 h after final administration, diabetic rats 6 months old
Description: The hypolipidaemic activity of the compounds of formula I by the oral route was determined on an experimental model of non-insulin-dependent diabetes induced in the rat by streptozotocin.
The model of non-insulin-dependent diabetes is obtained in the rats by a neonatal injection (5 days after birth) of streptozotocin.
The diabetic rats used are 6 months old. The animals are kept, from the day of their birth to the day of the experiment, in an animal house at a regulated temperature of 21 to 22° C. and are subjected to a fixed cycle of light (from 7 h to 19 h) and of darkness (from 19 h to 7 h).
Their diet consisted of a maintenance diet; water and food were provided “ab [sic] libitum”, with the exception of the 18 hours of fasting preceding the withdrawals of the blood samples on which the lipid balances will be carried out.
The rats are treated by the oral route with the compound of Example 1 for 7 days. A 300-μl sample is withdrawn 18 h after the final administration of this compound.
The total cholesterol was quantitatively determined by the CHOE/CHOD/POD Trinder method as an end point (Instrumentation Laboratory reagent [lacuna] on a Monarch plus analyser (Instrumentation Laboratory).
The total triglycerides were quantitatively determined by the GPO/Trinder method as an end point (Sigma Diagnostic reagent) on a Monarch analyser (Instrumentation Laboratory).

melting point: 158 to 160 °C
SMILES: COc1cccc(N2CCN(CCOc3ccc(CC(=O)O)cc3)CC2)c1 [Example 1, (4-{2-[4-(3-methoxyphenyl)-piperazin-1-yl]ethoxy}phenyl) acetic acid]
% of glycaemia at D1 (percentage of change in the glycaemia with respect to D0) ([1]; 20 mg/kg/day): −8% | % of glycaemia at D4 (percentage of change in the glycaemia with respect to D0) ([1]; 20 mg/kg/day): −10% | % of glycaemia at D1 (percentage of change in the glycaemia with respect to D0) ([1]; 200 mg/kg/day): −24% | % of glycaemia at D4 (percentage of change in the glycaemia with respect to D0) ([1]; 200 mg/kg/day): −34% | TOTAL CHOLESTEROL ([2]; in the absence of treatment 90): 79 mg/dL | TOTAL TRIGLYCERIDES ([2]; in the absence of treatment 167): 102 mg/dL
